Experimental data as given in patent US20090088380A1, “GHRH ANALOGS AND THERAPEUTIC USES THEREOF” (priority 2007, published 2009).
Non-standard residues stand in square brackets, D forms with d. Residues, ends and D or L forms follow the SMILES beside them.

Tested on: GH and IGF-1 secretion
Assay: Phase I/II study in healthy male volunteers: GH and IGF-1 secretion
Assay type: in vivo, human
Excerpt: The primary objectives of the Phase I/II study were to assess safety and tolerability of escalating doses of the GHRH(1-29)NH2 synthetic analog (Maximal Tolerated Dose—MTD) and to determine the minimal effective dose (MED) of the GHRH(1-29)NH2 synthetic analog in terms of stimulation of GH and IGF-1 secretion. The secondary objectives were to establish the lowest dose of the GHRH(1-29)NH2 synthetic analog that induces maximal response with a single subcutaneous administration into healthy male volunteers, to determine the MED for subsequent studies and to establish the most representative blood sampling time for evaluation of GH secretion profile after GHRH(1-29)NH2 synthetic analog administration to be used in subsequent studies.
It was a crossover single-blinded Phase I/II trial of escalating doses of the GHRH(1-29)NH2 synthetic analog controlled versus placebo. Ten healthy middle-aged male volunteers, between 50 and 55 years old, were recruited. All 10 subjects received a single subcutaneous dose of the GHRH(1-29)NH2 synthetic analog (reconstituted in water for injection), per day for 5 days, in a dose range from 5 to 25 μg/kg of body weight (lower than the maximal dose used to treat GH deficiency in children, which was 30 μg/kg of body weight).
Each volunteer was hospitalized for 6 days. All volunteers were randomized into 5 groups (2 volunteers per group). During the first 24 hours of hospitalization (Day 0), scheduled blood samples were obtained for GH and IGF-1 assessment (GH and IGF-1 baseline sampling) and then from Day 1 until Day 5, following each GHRH(1-29)NH2 synthetic analog or placebo dose administration, according to the established randomization plan.
Once the volunteers were considered eligible, they were hospitalized for a period of 5 consecutive days. On Day 0 of admission successive samples of blood were taken to perform the basal secretion profile of GH during 24 hours. During 5-day hospitalization period, after the initial blood sampling to determine fasting glucose level, the appropriate dose of the GHRH(1-29)NH2 synthetic analog or placebo was administered and multiple samplings were performed to assess the profile of GH, postprandial glucose level and electrocardiogram after 60 minutes of the application of the GHRH(1-29)NH2 synthetic analog/placebo. Eight hours after drug administration, samples were obtained to determine IGF-1 level, thyroid hormones and routine analysis. After 30 days of admission, all the volunteers returned for new clinical evaluation to record any adverse events that could have occurred from the last day of hospitalization period and to take a blood sample for later determination of anti-GHRH(1-29)NH2 synthetic analog antibodies.
Serum human GH was measured by using a commercial DSL-1900 ACTIVE® Human Growth Hormone Coated-Tube Immunoradiometric Assay Kit purchased from Diagnostic Systems Laboratories, Inc., Texas, USA. Serum IGF-1 was measured using DSL-9400 ACTIVE® Free Insulin-Like Growth Factor-I Coated-Tube IRMA Kit purchased from Diagnostic Systems Laboratories.
To determine MED, GH secretion curves were drawn and the area under the curve (AUC) calculated for each study drug dose.

CC[C@H](C)[C@H](NC(=O)[C@H](C)NC(=O)[C@H](CC(=O)O)NC(=O)[C@@H](C)NC(=O)[C@@H](N)Cc1ccc(O)cc1)C(=O)N[C@@H](Cc1ccccc1)C(=O)N[C@H](C(=O)N[C@@H](CC(N)=O)C(=O)N[C@@H](CO)C(=O)N[C@H](Cc1ccc(O)cc1)C(=O)N[C@@H](CCCNC(=N)N)C(=O)N[C@@H](CCCCN)C(=O)N[C@H](C(=O)N[C@@H](CC(C)C)C(=O)N[C@H](C)C(=O)N[C@@H](CCC(N)=O)C(=O)N[C@@H](CC(C)C)C(=O)N[C@@H](CO)C(=O)N[C@@H](C)C(=O)N[C@@H](CCCNC(=N)N)C(=O)N[C@@H](CCCCN)C(=O)N[C@@H](CCCCN)C(=O)N[C@@H](CC(C)C)C(=O)N[C@@H](CCC(N)=O)C(=O)N[C@@H](CC(=O)O)C(=O)N[C@H](C(=O)N[C@@H](CCSC)C(=O)N[C@@H](CO)C(=O)N[C@@H](CCCNC(=N)N)C(N)=O)[C@@H](C)CC)C(C)C)[C@@H](C)O [GHRH analog #5, [D-Ala^2, D-Tyr^10, D-Ala^15, Lys^22] hGHRH(1-29)-NH2] (H-Y[dA]DAIFTNS[dY]RKVL[dA]QLSARKKLQDIMSR-NH2)
AUC of GH level in the first 12 hours (5 μg/kg body weight): 61.76
AUC of GH level in the first 12 hours (10 μg/kg body weight): 71.25
AUC of GH level in the first 12 hours (15 μg/kg body weight): 135.17
AUC of GH level in the first 12 hours (25 μg/kg body weight): 149.48
IGF-1 mean level (Day 1 of treatment): 156 ng/mL
IGF-1 mean level (Day 5 of treatment): 231 ng/mL
GH levels compared to placebo (any dose): unequivocally higher at any dose
